Experiments:
[1] = test system: wild oat; assay: Test Example 4: herbicidal effect by soil treatment (Table 19, symbol I); type: in vivo, wild oat (Avena fatua); settings: amount of applied herbicide 320 g/ha
In short: (§1)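 Applied as a water-diluted emulsion, the compound was sprayed onto soil covering newly sown seeds. Evaluation came three weeks after application, in a greenhouse held at 25° C. to 30° C.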

[2] = test system: barnyard grass; assay: Test Example 4: herbicidal effect by soil treatment (Table 19, symbol H); type: in vivo, barnyard grass (Echinochloa crus-galli); settings: amount of applied herbicide 320 g/ha
In short: as §1

[3] = test system: persian speedwell; assay: Test Example 4: herbicidal effect by soil treatment (Table 19, symbol R); type: in vivo, Persian speedwell (Veronica persica); settings: amount of applied herbicide 320 g/ha
In short: as §1

[4] = test system: persian speedwell; assay: Test Example 5: herbicidal effect by foliage application, plastic box (Table 20, symbol R); type: in vivo, Persian speedwell (Veronica persica); settings: foliage application, 320 g/ha, three weeks after application
In short: (§2)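 Sow seeds spot-wise in sterilized diluvial soil; cover with ~1.5 cm soil. Grow 14 days in greenhouse, 25° C. to 30° C. Spray foliage with emulsion diluted to predetermined amount. Rate effect after 3 weeks.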

[5] = test system: chickweed; assay: Test Example 5: herbicidal effect by foliage application, plastic box (Table 20, symbol P); type: in vivo, common chickweed (Stellaria media); settings: foliage application, 320 g/ha, three weeks after application
In short: as §2

[6] = test system: southern crabgrass; assay: Test Example 5: herbicidal effect by foliage application, plastic box (Table 20, symbol F); type: in vivo, southern crabgrass (Digitaria ciliaris); settings: foliage application, 320 g/ha, three weeks after application
In short: as §2

[7] = test system: velvetleaf; assay: Test Example 4: herbicidal effect by soil treatment (Table 19, symbol M); type: in vivo, velvetleaf (Abutilon theophrasti); settings: amount of applied herbicide 320 g/ha
In short: as §1

[8] = test system: lambsquarters; assay: Test Example 4: herbicidal effect by soil treatment (Table 19, symbol O); type: in vivo, lambsquarters (Chenopodium album); settings: amount of applied herbicide 320 g/ha
In short: as §1

[9] = test system: barnyard grass; assay: Test Example 3: herbicidal effect by foliage application, Wagner pot (Table 18, symbol H); type: in vivo, barnyard grass (Echinochloa crus-galli); settings: 320 g/ha
In short: (§3)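 Plants were sown in alluvial soil held under 0.1–0.5 cm standing water and grown 14 days in a greenhouse at 25–30 °C. An emulsifiable formulation, water-diluted to the set dose, was then sprayed onto the foliage, and effects were scored three weeks later using previously defined criteria.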

[10] = test system: blackgrass; assay: Test Example 5: herbicidal effect by foliage application, plastic box (Table 20, symbol J); type: in vivo, blackgrass (Alopecurus myosuroides); settings: foliage application, 320 g/ha, three weeks after application
In short: as §2

[11] = test system: wild oat; assay: Test Example 5: herbicidal effect by foliage application, plastic box (Table 20, symbol I); type: in vivo, wild oat (Avena fatua); settings: foliage application, 320 g/ha, three weeks after application
In short: as §2

[12] = test system: southern crabgrass; assay: Test Example 4: herbicidal effect by soil treatment (Table 19, symbol F); type: in vivo, southern crabgrass (Digitaria ciliaris); settings: amount of applied herbicide 320 g/ha
In short: as §1

[13] = test system: chickweed; assay: Test Example 4: herbicidal effect by soil treatment (Table 19, symbol P); type: in vivo, common chickweed (Stellaria media); settings: amount of applied herbicide 320 g/ha
In short: as §1

[14] = test system: rice flat sedge; assay: Test Example 3: herbicidal effect by foliage application, Wagner pot (Table 18, symbol E); type: in vivo, rice flat sedge (Cyperus iria); settings: 320 g/ha
In short: as §3

[15] = test system: Chinese sprangletop; assay: Test Example 3: herbicidal effect by foliage application, Wagner pot (Table 18, symbol D); type: in vivo, chinese sprangletop (Leptochloa chinensis); settings: 320 g/ha
In short: as §3

[16] = test system: green foxtail; assay: Test Example 4: herbicidal effect by soil treatment (Table 19, symbol G); type: in vivo, green foxtail (Setaria viridis); settings: amount of applied herbicide 320 g/ha
In short: as §1

[17] = test system: blackgrass; assay: Test Example 4: herbicidal effect by soil treatment (Table 19, symbol J); type: in vivo, blackgrass (Alopecurus myosuroides); settings: amount of applied herbicide 320 g/ha
In short: as §1

[18] = test system: redroot pigweed; assay: Test Example 5: herbicidal effect by foliage application, plastic box (Table 20, symbol N); type: in vivo, redroot pigweed (Amaranthus retroflexus); settings: foliage application, 320 g/ha, three weeks after application
In short: as §2

[19] = test system: lambsquarters; assay: Test Example 5: herbicidal effect by foliage application, plastic box (Table 20, symbol O); type: in vivo, lambsquarters (Chenopodium album); settings: foliage application, 320 g/ha, three weeks after application
In short: as §2

[20] = test system: green foxtail; assay: Test Example 5: herbicidal effect by foliage application, plastic box (Table 20, symbol G); type: in vivo, green foxtail (Setaria viridis); settings: foliage application, 320 g/ha, three weeks after application
In short: as §2

[21] = test system: windgrass; assay: Test Example 5: herbicidal effect by foliage application, plastic box (Table 20, symbol L); type: in vivo, windgrass (Apera spica-venti); settings: foliage application, 320 g/ha, three weeks after application
In short: as §2

[22] = test system: redroot pigweed; assay: Test Example 4: herbicidal effect by soil treatment (Table 19, symbol N); type: in vivo, redroot pigweed (Amaranthus retroflexus); settings: amount of applied herbicide 320 g/ha
In short: as §1

[23] = test system: velvetleaf; assay: Test Example 5: herbicidal effect by foliage application, plastic box (Table 20, symbol M); type: in vivo, velvetleaf (Abutilon theophrasti); settings: foliage application, 320 g/ha, three weeks after application
In short: as §2

[24] = test system: barnyard grass; assay: Test Example 5: herbicidal effect by foliage application, plastic box (Table 20, symbol H); type: in vivo, barnyard grass (Echinochloa crus-galli); settings: foliage application, 320 g/ha, three weeks after application
In short: as §2

[25] = test system: Italian ryegrass; assay: Test Example 5: herbicidal effect by foliage application, plastic box (Table 20, symbol K); type: in vivo, Italian ryegrass (Lolium multiflorum); settings: foliage application, 320 g/ha, three weeks after application
In short: as §2

[26] = test system: windgrass; assay: Test Example 4: herbicidal effect by soil treatment (Table 19, symbol L); type: in vivo, windgrass (Apera spica-venti); settings: amount of applied herbicide 320 g/ha
In short: as §1

[27] = test system: Italian ryegrass; assay: Test Example 4: herbicidal effect by soil treatment (Table 19, symbol K); type: in vivo, Italian ryegrass (Lolium multiflorum); settings: amount of applied herbicide 320 g/ha
In short: as §1

Structure (SMILES): CCCC(=O)Oc1c(C)nn(C)c(=O)c1-c1c(-c2ccccc2OC)sc2cc(Cl)ccc12 [3-036]
- I: wild oat, herbicidal effect grade [1]: 0 (Herbicidal rate of 5% or less (almost no effect))
- H: barnyard grass, herbicidal effect grade [2]: 3 (Herbicidal rate of 40% or more and less than 70%)
- R: persian speedwell, herbicidal effect grade [3]: 3 (Herbicidal rate of 40% or more and less than 70%)
- R: persian speedwell, herbicidal effect grade [4]: 5 (Herbicidal rate of 90% or more (almost completely withered))
- P: chickweed, herbicidal effect grade [5]: 5 (Herbicidal rate of 90% or more (almost completely withered))
- F: southern crabgrass, herbicidal effect grade [6]: 1 (Herbicidal rate of 5% or more and less than 20%)
- M: velvetleaf, herbicidal effect grade [7]: 2 (Herbicidal rate of 20% or more and less than 40%)
- O: lambsquarters, herbicidal effect grade [8]: 3 (Herbicidal rate of 40% or more and less than 70%)
- herbicidal effect on barnyard grass (H) [9]: 5 (Herbicidal rate of 90% or more (almost completely withered))
- J: blackgrass, herbicidal effect grade [10]: 0 (Herbicidal rate of 5% or less (almost no effect))
- I: wild oat, herbicidal effect grade [11]: 1 (Herbicidal rate of 5% or more and less than 20%)
- F: southern crabgrass, herbicidal effect grade [12]: 1 (Herbicidal rate of 5% or more and less than 20%)
- P: chickweed, herbicidal effect grade [13]: 3 (Herbicidal rate of 40% or more and less than 70%)
- herbicidal effect on rice flat sedge (E) [14]: 4 (Herbicidal rate of 70% or more and less than 90%)
- herbicidal effect on Chinese sprangletop (D) [15]: 0 (Herbicidal rate of 5% or less (almost no effect))
- G: green foxtail, herbicidal effect grade [16]: 2 (Herbicidal rate of 20% or more and less than 40%)
- J: blackgrass, herbicidal effect grade [17]: 0 (Herbicidal rate of 5% or less (almost no effect))
- N: redroot pigweed, herbicidal effect grade [18]: 5 (Herbicidal rate of 90% or more (almost completely withered))
- O: lambsquarters, herbicidal effect grade [19]: 3 (Herbicidal rate of 40% or more and less than 70%)
- G: green foxtail, herbicidal effect grade [20]: 3 (Herbicidal rate of 40% or more and less than 70%)
- L: windgrass, herbicidal effect grade [21]: 0 (Herbicidal rate of 5% or less (almost no effect))
- N: redroot pigweed, herbicidal effect grade [22]: 5 (Herbicidal rate of 90% or more (almost completely withered))
- M: velvetleaf, herbicidal effect grade [23]: 4 (Herbicidal rate of 70% or more and less than 90%)
- H: barnyard grass, herbicidal effect grade [24]: 5 (Herbicidal rate of 90% or more (almost completely withered))
- K: Italian ryegrass, herbicidal effect grade [25]: 0 (Herbicidal rate of 5% or less (almost no effect))
- L: windgrass, herbicidal effect grade [26]: 3 (Herbicidal rate of 40% or more and less than 70%)
- K: Italian ryegrass, herbicidal effect grade [27]: 0 (Herbicidal rate of 5% or less (almost no effect))

Structure (SMILES): COc1ccc(-c2sc3cc(Cl)ccc3c2-c2c(O)c(C)nn(C)c2=O)cc1 [3-037]
- I: wild oat, herbicidal effect grade [1]: 0 (Herbicidal rate of 5% or less (almost no effect))
- H: barnyard grass, herbicidal effect grade [2]: 0 (Herbicidal rate of 5% or less (almost no effect))
- R: persian speedwell, herbicidal effect grade [3]: 3 (Herbicidal rate of 40% or more and less than 70%)
- R: persian speedwell, herbicidal effect grade [4]: 5 (Herbicidal rate of 90% or more (almost completely withered))
- P: chickweed, herbicidal effect grade [5]: 5 (Herbicidal rate of 90% or more (almost completely withered))
- F: southern crabgrass, herbicidal effect grade [6]: 0 (Herbicidal rate of 5% or less (almost no effect))
- M: velvetleaf, herbicidal effect grade [7]: 0 (Herbicidal rate of 5% or less (almost no effect))
- O: lambsquarters, herbicidal effect grade [8]: 3 (Herbicidal rate of 40% or more and less than 70%)
- herbicidal effect on barnyard grass (H) [9]: 4 (Herbicidal rate of 70% or more and less than 90%)
- J: blackgrass, herbicidal effect grade [10]: 0 (Herbicidal rate of 5% or less (almost no effect))
- I: wild oat, herbicidal effect grade [11]: 0 (Herbicidal rate of 5% or less (almost no effect))
- F: southern crabgrass, herbicidal effect grade [12]: 0 (Herbicidal rate of 5% or less (almost no effect))
- P: chickweed, herbicidal effect grade [13]: 3 (Herbicidal rate of 40% or more and less than 70%)
- herbicidal effect on rice flat sedge (E) [14]: 4 (Herbicidal rate of 70% or more and less than 90%)
- herbicidal effect on Chinese sprangletop (D) [15]: 3 (Herbicidal rate of 40% or more and less than 70%)
- G: green foxtail, herbicidal effect grade [16]: 0 (Herbicidal rate of 5% or less (almost no effect))
- J: blackgrass, herbicidal effect grade [17]: 0 (Herbicidal rate of 5% or less (almost no effect))
- N: redroot pigweed, herbicidal effect grade [18]: 5 (Herbicidal rate of 90% or more (almost completely withered))
- O: lambsquarters, herbicidal effect grade [19]: 4 (Herbicidal rate of 70% or more and less than 90%)
- G: green foxtail, herbicidal effect grade [20]: 0 (Herbicidal rate of 5% or less (almost no effect))
- L: windgrass, herbicidal effect grade [21]: 0 (Herbicidal rate of 5% or less (almost no effect))
- N: redroot pigweed, herbicidal effect grade [22]: 0 (Herbicidal rate of 5% or less (almost no effect))
- M: velvetleaf, herbicidal effect grade [23]: 5 (Herbicidal rate of 90% or more (almost completely withered))
- H: barnyard grass, herbicidal effect grade [24]: 0 (Herbicidal rate of 5% or less (almost no effect))
- K: Italian ryegrass, herbicidal effect grade [25]: 0 (Herbicidal rate of 5% or less (almost no effect))
- L: windgrass, herbicidal effect grade [26]: 0 (Herbicidal rate of 5% or less (almost no effect))
- K: Italian ryegrass, herbicidal effect grade [27]: 0 (Herbicidal rate of 5% or less (almost no effect))

Source: patent publication US20230085307A1, “PYRIDAZINONE COMPOUND AND HERBICIDE” (NISSAN CHEMICAL CORPORATION, priority 2019, published 2023)
